The values that follow are results of earlier work, collected in article PMC9248236 (Nature chemical biology, 2022).

The subject of the series is IR. The note with it: competition binding assays, substitution at B24 of insulin.

In the case of “LeuB24: human insulin analog with PheB24 substituted by leucine (literature)”, the “affinity for IR lower than native PheB24 human insulin” value is reported as 2–3 fold. Turning to “IleB24: human insulin analog with PheB24 substituted by isoleucine (literature)”, the “affinity for IR lower than native PheB24 human insulin” value was 2–3 fold.
